Experimental data taken from article PMC7373766, “In vitro and in vivo Evaluation of in silico Predicted Pneumococcal UDPG:PP Inhibitors” (Frontiers in Microbiology, 2020).

Key:
[1] = Cytotoxicity assay (resazurin); type: cell-based; conditions: human, MRC-5 cells, maximal tested concentration 64 μM
Protocol: MRC-5 cells were grown into polystyrene 96-well plates at an initial concentration of 1.5 × 10^5 cells/mL cells per well and incubated at 37°C and 5% CO2. In each well, 190 μL of cell suspension was added together with 10 μL of watery compound dilutions. Cell growth was compared to untreated control wells (100% cell growth) and medium-control wells (0% cell growth). After 3 days of incubation, cell viability was assessed using resazurin as described earlier. […] Tamoxifen was used as a positive control.

[2] = tested on: L. monocytogenes; parameters: method as in Kuenemann et al., 2018; conditions: previous research; ref Kuenemann et al., 2018; cited from earlier work
[3] = tested on: S. pneumoniae polysaccharide capsule / bacterial size; experiment: FITC-dextran exclusion assay (degree of encapsulation); type: cell-based
Protocol: The degree of encapsulation was determined by measuring the zone of exclusion of FITC-dextran (200 kDa, Sigma-Aldrich), as described previously ([Gates et al., 2004]; [Weinberger et al., 2009]; [Cools et al., 2018]). Briefly, bacteria were grown as described earlier until logarithmic phase with or without 50 μM of compound, centrifuged for 5 min at 5000 g and resuspended in PBS. To 100 μL of bacterial suspension 20 μL FITC-dextran (10 μg/mL in water) was added and 10 μL of this suspension was subsequently used to create wet mounts with cover slips. The slides were viewed on a Zeiss Observer.Z1 microscope with a 100x objective, and fluorescent images were captured with a Zeiss AxioCam MRm camera. The images were converted into grayscale and analyzed using ImageJ software. The area of FITC exclusion was determined. For each fluorescent image, a brightfield image was also recorded in order to count the number of bacteria per chain. For each strain, the mean of 150–300 cells was determined, and at least two images were collected from each of at least two independently prepared slides.

[4] = tested on: S. pneumoniae; experiment: Galleria mellonella killing assay; type: in vivo
Protocol: Larvae were purchased from a local vendor (Anaconda Reptiles, Kontich, Belgium) and stored in wood chips at 15°C before use. Four hours before use, larvae were put at 4°C. A sterile 20 μL Hamilton syringe was used to inject 10 μL aliquots of bacterial suspensions into the hindmost left proleg of Galleria mellonella. Bacteria were grown mid logarithmic phase for 6 h with or without 1, 10, 50 or 200 μM compounds, washed and resuspended in PBS before infection. The control group was injected with 10 μL PBS. A minimum of 10 larvae per group was used. Following the injections, larvae were incubated at 37°C in the dark for several days to allow progression of the pneumococcal infection. Every 24 h, larvae were scored as dead or alive. Larvae were determined dead when no signs of movement could be observed in response to external stimuli. For each strain, at least four independent repeats were carried out.

NCCCOc1cccc(C(=O)NC2CCC(n3cc(F)c(=O)[nH]c3=O)C(O)C2O)c1 (centres unmarked) [BDG 33920985]
CC50 at 3 days [1]: 43.7 µM | Activity on L. monocytogenes [2]: active

NCCOc1cccc(C(=O)NC2CCCC(n3ccc(=O)[nH]c3=O)C2O)c1 (centres unmarked) [BDH 33910157]
CC50 at 3 days [1]: > 64 µM | Effect on bacterial size (area of FITC-dextran exclusion) ([3]; strain R6, 50 μM of compound): no effect | Effect on larval survival, dose-response ([4]; strain TIGR4 grown with 1 μM compound): inactive | Effect on larval survival, dose-response ([4]; strain TIGR4 grown with 10 μM compound): inactive | Effect on larval survival, dose-response ([4]; strain TIGR4 grown with 50 μM compound): significantly improved larval survival | Effect on larval survival, dose-response ([4]; strain TIGR4 grown with 200 μM compound): significantly improved larval survival | Activity on L. monocytogenes [2]: active

NCCCOc1cccc(C(=O)NC2CCCC(n3cnc4c(N)ncnc43)C2O)c1 (centres unmarked) [BDH 33910188]
CC50 at 3 days [1]: > 64 µM | Effect on bacterial size (area of FITC-dextran exclusion) ([3]; strain M23 galU mutant, 50 μM of compound): no effect
